From patent publication US6359009B1, “Substituted anilide insecticidal agents” (BASF Aktiengesellschaft, priority 1998, dated 2002)

Columns and labels:
[1] = test system: Diabrotica undecimrunctata howardi, 3rd instar southern corn rootworm; experiment: Evaluation against 3rd instar southern corn rootworm, treated talc/soil jar test, mortality after 5 days; type: in vivo, Diabrotica undecimpunctata howardi; details: mortality rating 0-9 after 5 days in soil
Protocol: (§1) Test solutions are prepared by dissolving the test compound in a 35% acetone in water mixture to give a concentration of 10,000 ppm. Subsequent dilutions are made with water as needed.
Diabrotica undecimrunctata howardi, 3rd instar southern corn rootworm
(§2) One cc of fine talc is placed in a 30 mL wide-mouth screw-top glass jar. One mL of the appropriate acetone test solution is pipetted onto the talc so as to provide 1.25 mg, 0.25 mg or 0.025 mg of active ingredient per jar. The jars are set under a gentle air flow until the acetone is evaporated. The dried talc is loosened, 1 cc of millet seed is added to serve as food for the insects and 25 mL of moist soil is added to each jar. The jar is capped and the contents thoroughly mixed mechanically. Following this, ten 3rd instar rootworms are added to each jar and the jars are loosely capped to allow air exchange for the larvae. The treatments are held for 5 days when mortality counts are made. Missing larvae are presumed dead, since they decompose rapidly and can not be found.

[2] = test system: Diabrotica virgifera virgifera Leconte, 3rd instar western corn rootworm; experiment: Evaluation against 3rd instar western corn rootworm, treated talc/soil jar test, mortality after 5 days; type: in vivo; details: mortality rating 0-9 after 5 days in soil
Protocol: as §1
Diabrotica virgifera virgifera Leconte, 3rd instar western corn rootworm
as §2

SMILES	Southern Corn Rootworm (1 ppm) rating [1]	Southern Corn Rootworm (10 ppm) rating [1]	Southern Corn Rootworm (50 ppm) rating [1]	Western Corn Rootworm (1 ppm) rating ([2]; 1 ppm)	Western Corn Rootworm (10 ppm) rating ([2]; 10 ppm)	Western Corn Rootworm (50 ppm) rating ([2]; 50 ppm)
CC(C)C(=O)C(C)(C)C(=O)N(C(=O)c1ccc(C(F)(F)F)cc1)c1ccc(C(F)(F)F)cc1 [Compound 6, α,α,α,α′,α′,α′-Hexafluoro-N-(2,2,4-trimethyl-3-oxovaleryl)-p-tolu-p-toluidide]	2.0	9.0	9.0			
CC(C)C(=O)C(C)(C)C(=O)N(C(=O)c1ccc(Cl)cc1)c1ccc(C(F)(F)F)cc1 [Compound 7, 4-Chloro-α,α,α-trifluoro-N-(2,2,4-trimethyl-3 oxovaleryl)-p-benzotoluidide]	0.0	9.0	9.0			
CC(C)C(=O)C(C)(C)C(=O)N(C(=O)c1c(F)cccc1F)c1ccc(C(F)(F)F)cc1 [Compound 8, α,α,α,2,6-Pentafluoro-N-(2,2,4#trimethyl-3 oxovaleryl)-p-benzotoluidide]	0.0	0.0	4.0			
CC(=O)OC(C(C)C)C(C)(C)C(=O)Nc1ccc(C(F)(F)F)cc1 (stereo not drawn) [Compound 9, α,α,α-Trifluoro-3-hydroxy-2,2,4-trimethyl-p-valerotoluidide, acetate (ester)]	0.0	8.3	8.3			
CC(C)/C(=N\O)C(C)(C)C(=O)Nc1ccc(C(F)(F)F)cc1 [Compound 10, α,α,α-Trifluoro-2,2,4-trimethyl-3-oxo-p-valerotoluidide, 3-oxime]			7.0			
CC(C)(C(=O)Nc1ccc(C(F)(F)F)cc1)C(=O)C(C)(C)c1ccccc1 [Compound 11, α,α,α-Trifluoro-2,2,4-trimethyl-3-oxo-4-phenyl-p-valerotoluidide]			6.0			
CC(C)[S+]([O-])C(C)(C)C(=O)Nc1ccc(C(F)(F)F)cc1 (stereo not drawn) [Compound 12, α,α,α-Trifluoro-2-(isopropylsulfinyl)-2-methyl-p-propionotoluidide]	8.0	9.0	9.0	0.0	0.0	9.0
CC(C)S(=O)(=O)C(C)(C)C(=O)Nc1ccc(C(F)(F)F)cc1 [Compound 13, α,α,α-Trifluoro-2-(isopropylsulfonyl)-2-methyl-p-propionotoluidide]	3.0	9.0	9.0			
CC(=O)OC(C(C)C)C(C)(C)C(=O)Nc1ccc(Cl)cc1 (centres unmarked) [Compound 14, 4′-chloro-3-hydroxy-2,2,4-trimethylvaleranilide, acetate (ester)]	9.0	9.0	9.0			
CC(C)C(=O)C(C)(C)C(=O)Nc1ccc(Cl)cc1 [Compound 37, 4′-Chloro-2,2,4-trimethyl-3-oxovaleranilide]	0.0	9.0	9.0			
